Assays:
[1] = tested on: human trabecular meshwork cell line (TM-1 cells); assay: Test for evaluation of effect of morphological change on trabecular meshwork cells (cell shape index, CSI); format: cell-based; details: final concentration 10 μM, 24 hours incubation, Control 0.694, lower CSI indicates greater morphological changes
Description: Further, as a result of studying an effect morphological change of the present compound on trabecular meshwork cells, i.e., an effect of morphological change of the present compound on trabecular meshwork cells in an evaluation system using the cell shape index (hereinafter referred to as “CSI”) reported in The Journal of Clinical Investigation, 103, 1141-1150 (1999) as an index, it was found the present compound has an excellent effect of morphological change on trabecular meshwork cells.
As a method for evaluating a cellular morphological change, an evaluation system using the cell shape index (hereinafter referred to as “CSI”) as an index has been reported in The Journal of Clinical Investigation, 103, 1141-1150 (1999). Therefore, according to the method described in the above document, an effect of morphological change of the present compounds on trabecular meshwork cells was evaluated.
A human trabecular meshwork cell line (hereinafter referred to as “TM-1 cells”) reported in Investigative Ophthalmology & Visual Science, 43, 151-161 (2002) was used.
Culture medium 1: A reagent was prepared by adding fetal bovine serum (10%), L-glutamine (2 mM), amphotericin B ([…]), and gentamicin (25 μg/mL) to Dulbecco's Modified Eagle Medium (hereinafter referred to as “D-MEM”).
Culture medium 2: A reagent was prepared by adding fetal bovine serum (3%), L-glutamine (2 mM), amphotericin B (2.5 μg/mL), and gentamicin (25 μg/mL) were added to D-MEM.
Cell staining liquid: A mixed liquid of Calcein-AM (16 μM) and Hoechst 33342 (40 μM) was prepared by diluting a Calcein-AM solution (cytoplasmic staining reagent, manufactured by Dojindo Laboratories) and a Hoechst 33342 solution (nuclear staining reagent, manufactured by Dojindo Laboratories) with D-MEM containing L-glutamine (2 mM), amphotericin B (2.5 μg/mL), and gentamicin (25 μg/mL).
TM-1 cells subcultured at 37° C. in a 8% carbon dioxide gas atmosphere were treated with a trypsin/EDTA solution (0.05% trypsin and 0.53 mM tetrasodium ethylenediaminetetraacetate) at 24 hours before performing a drug treatment mentioned below and seeded on a 96-well culture plate. The culture medium 1 was used for the subculture of the cells. The culture medium 2 was used for the cell culture after seeding the cells on the plate.
A test compound was dissolved in DMSO, whereby a 5 mM solution was prepared. Then, the resulting solution was diluted with the culture medium 2, whereby a 200 μM test compound solution was prepared.
It has been reported that Y-27632 which is a Rho kinase inhibitor induces a morphological change in trabecular meshwork cells in Investigative Ophthalmology & Visual Science, 42, 137-144 (2001). Therefore, Y-27632 (produced according to the method described in WO 90/05723) was used as a positive control, and dissolved in DMSO in the same manner as the test compound, whereby a 5 mM solution was prepared, and then, the resulting solution was diluted with the culture medium 2, whereby a 200 μM positive control compound solution was prepared.
1) To a 96-well culture plate, a solution of TM-1 cells adjusted to a cell density of […] was added in an amount of 95 μL (1.5×10^4 cells) per well.
2) Incubation was performed at 37° C. in a 8% carbon dioxide gas atmosphere for 24 hours.
3) The test compound solution or positive control compound solution was added in an amount of 5 μL per well (the final concentration of the test compound or positive control compound was 10 μM). As a control, the culture medium 2 containing DMSO (4%) was added in an amount of 5 μL per well.
4) Incubation was performed at 37° C. in a 8% carbon dioxide gas atmosphere for 24 hours.
5) The cell staining liquid was added in an amount of 10 μL per well.
6) Incubation was performed at 37° C. in a 8% carbon dioxide gas atmosphere for 1 hour to stain the cells.
7) A 37% formaldehyde solution was added in an amount of 10 μL per well.
8) Incubation was performed at room temperature for 1 hour to fix the cells. […]

[2] = tested on: male Japanese White rabbits; assay: Test for evaluation of intraocular pressure-lowering effect (intracameral administration); format: in vivo, rabbit; details: intracameral administration of 20 μL of 1 mM liquid, at 9 hours after administering, versus vehicle control group
Description: Further, as a result of studying an effect of intraocular pressure reduction of the present compound through intracameral administration using male Japanese white rabbits in order to confirm an actual effect of intraocular pressure reduction of the present compound, it was confirmed that the present compound has an effect of intraocular pressure reduction. […]
One drop of 0.4% oxybuprocaine hydrochloride eye drop was instilled into both eyes of each male Japanese White rabbit to achieve local anesthesia, and thereafter, the intraocular pressure was measured using an applanation tonometer. […] After the lapse of a certain period of time from the administration of the test compound or vehicle, one drop of 0.4% oxybuprocaine hydrochloride eye drop was instilled into the administered eye to achieve local anesthesia, and thereafter, the intraocular pressure was measured using an applanation tonometer.
The intraocular pressure-lowering effect of each test compound was evaluated by calculating an intraocular pressure reduction rate. The intraocular pressure reduction rate (%) was calculated using the following equation. […]

[3] = tested on: HDAC (HeLa nuclear extract); assay: Test for evaluation of HDAC inhibitory activity (HDAC Fluorimetric Assay/Drug Discovery Kit, Biomol); format: biochemical; details: final concentration of the test compound 30 μM, values more than 100% shown as 100%
Procedure: Using HDAC Fluorimetric Assay/Drug Discovery Kit (manufactured by Biomol), HDAC inhibitory activity of the present compounds was measured according to the protocol included with the kit. The kit contains Buffer, HeLa nuclear extract (includes HDAC), Substrate, Developer and Trichostatin A HDAC inhibitor).
A test compound was dissolved in dimethyl sulfoxide (hereinafter referred to as “DMSO”), whereby a 2 mg/mL solution was prepared. Then, the resulting solution was diluted with Buffer containing 5% DMSO, whereby a 150 μM test compound solution was prepared.
1) To a 384-well culture plate, the test compound solution was added in an amount of 2 μL per well.
2) HeLa nuclear extract was diluted 30-fold with Buffer. The resulting solution was added in an amount of 3 μL per well, and then incubation was performed at 37° C. for 2 hours.
3) Substrate was diluted 500-fold with Buffer. The resulting solution was added in an amount of 5 μL per well (the final concentration of the test compound was 30 μM), and then incubation was performed at 37° C. for 10 minutes.
4) Developer was diluted 20-fold with Buffer and Trichostatin A (2 μM) was added to it. The resulting solution was added in an amount of 10 μL per well, and then incubation was performed at room temperature for 15 minutes.
5) The fluorescence intensity of each well was measured using multilabel counter ARVO (manufactured by Wallac) with excitation at 360 nm and emission at 460 nm.
6) A control data was obtained from the same experiment except that Buffer containing 5% DMSO was added instead of the test compound solution as the above-mentioned procedure from 1) to 5).
7) A blank data was obtained from the same experiment except that Buffer containing 5% DMSO was added instead of the test compound solution and that Buffer was added instead of Hela nuclear extract as the above-mentioned procedure from 1) to 5).
Enzyme inhibitory rate (%) was calculated using the following equation. (Enzyme Inhibitory Rate(%))=100×[1−{(Fluorescence Intensity of Test Compound Solution)−(Florescence Intensity of Blank)}/{(Florescence Intensity of Control)−(Florescence Intensity of Blank)}] (Test Results)

Compound	CSI [1]	Intraocular Pressure Reduction Rate (%) [2]	Enzyme Inhibitory Rate (%) [3]
CCCNC(=O)N(CCCCN1CCOCC1)Cc1ccc(C(=O)Nc2cscc2N)nc1 [Compound No. 1-82, N-(4-Aminothiophen-3-yl)-5-[1-[4-(morpholin-4-yl)butyl]-3-propylureidomethyl]pyridine-2-carboxylic acid amide]	0.507	25%	96%
CC(C)NC(=O)N(CCN(C)C)Cc1ccc(C(=O)Nc2cscc2N)nc1 [Compound No. 1-43, N-(4-Aminothiophen-3-yl)-5-[1-(2-dimethylaminoethyl)-3-isopropylureidomethyl]pyridine-2-carboxylic acid amide]	0.522	7%	100%
